Source: patent US20220193076A1, “METHODS OF TREATING BREAST CANCER WITH TUCATINIB” (Seagen Inc., priority 2019, published 2022)

What was measured:
OCT2 = molecular target: T1, OCT2 (Homo sapiens, UniProt O15244); test: Inhibition of OCT2 mediated transport of creatinine in transfected MDCK-II cells (Example 3); type: in vitro ADME; conditions: probe substrate creatinine, 0.03 to 10 μM
T1 construct: expressed in transfected cells; host or cells: MDCK-II
T1 sequence (O15244 1-555): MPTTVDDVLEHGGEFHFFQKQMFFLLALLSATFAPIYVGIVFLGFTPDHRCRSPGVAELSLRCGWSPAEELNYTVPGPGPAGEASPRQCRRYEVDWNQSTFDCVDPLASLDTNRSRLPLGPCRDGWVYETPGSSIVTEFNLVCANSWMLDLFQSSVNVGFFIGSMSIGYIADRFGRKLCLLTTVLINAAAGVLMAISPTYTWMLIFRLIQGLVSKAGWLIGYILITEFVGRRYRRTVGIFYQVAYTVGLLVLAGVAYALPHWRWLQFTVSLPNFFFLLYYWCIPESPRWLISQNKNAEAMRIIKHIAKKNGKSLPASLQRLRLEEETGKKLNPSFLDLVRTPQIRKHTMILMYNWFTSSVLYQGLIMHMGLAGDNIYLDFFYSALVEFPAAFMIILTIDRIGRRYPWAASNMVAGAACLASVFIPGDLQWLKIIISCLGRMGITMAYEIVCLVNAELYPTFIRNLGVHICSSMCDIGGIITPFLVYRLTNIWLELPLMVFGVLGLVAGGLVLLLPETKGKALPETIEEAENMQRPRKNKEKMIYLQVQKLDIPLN
Procedure: (§1) Substrate dependent inhibition is common among transporters including MATE1 and MATE2-K. In this study, creatinine was used as the probe substrate to assess the inhibitory potency of Tucatinib and ONT-993. OAT2, OCT2, OCT3, MATE1, and MATE2-K are the renal transporters identified to transport creatinine. Tucatinib and its metabolite ONT-993 were tested as potential inhibitors of OAT2, OCT2, MATE1, and MATE2-K mediated transport using creatinine as a probe substrate.
(§2) For this study, MDCK-II were maintained in DMEM with low glucose and 10% FBS. Cells were seeded at 60K±10K cells/well on 96-well, transwell membrane plates approximately 24 hours before transfection. Transport assays were carried out approximately 48 hours after transfection. Cells were transfected and treated to express the transporter of interest or treated with a control vector. The transport of creatinine was determined by radiometric detection.
(§3) Net transporter mediated uptake of the substrate by each transporter was calculated as follows: Net Transporter Mediated Substrate Uptake (pmol/min/cm^2)=(Cellular accumulation in the presence of the transporter)−(Mean cellular accumulation in the absence of the transporter.
(§4) Percent inhibition was calculated as follows: Percent inhibition=100−(100*(transporter mediated uptake)with inhibition/(transporter mediated uptake)without inhibition) […]

OAT2 = molecular target: T2, OAT2 (Homo sapiens, UniProt Q9Y694); test: Inhibition of OAT2 mediated transport of creatinine in transfected MDCK-II cells (Example 3); type: in vitro ADME; conditions: at concentration of 10 μM
T2 construct: expressed in transfected cells; host or cells: MDCK-II
T2 sequence (Q9Y694 1-548): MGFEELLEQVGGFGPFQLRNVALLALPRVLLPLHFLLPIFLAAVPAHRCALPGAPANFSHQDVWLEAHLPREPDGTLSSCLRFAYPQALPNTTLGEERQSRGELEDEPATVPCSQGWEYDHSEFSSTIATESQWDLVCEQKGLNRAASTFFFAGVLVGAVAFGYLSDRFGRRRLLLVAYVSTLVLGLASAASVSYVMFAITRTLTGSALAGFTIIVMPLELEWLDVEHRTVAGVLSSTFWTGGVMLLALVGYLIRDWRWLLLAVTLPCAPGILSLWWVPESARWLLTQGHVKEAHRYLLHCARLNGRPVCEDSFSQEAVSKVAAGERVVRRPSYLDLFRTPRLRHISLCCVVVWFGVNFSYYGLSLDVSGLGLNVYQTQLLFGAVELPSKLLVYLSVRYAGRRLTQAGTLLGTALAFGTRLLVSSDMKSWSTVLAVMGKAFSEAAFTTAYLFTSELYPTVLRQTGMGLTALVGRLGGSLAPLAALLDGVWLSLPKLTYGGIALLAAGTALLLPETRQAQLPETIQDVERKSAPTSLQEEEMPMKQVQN
Procedure: as §1, §2, §3, §4

[1] = Example 2 Part E: single- and multiple-dose PK of tucatinib and ONT-993; type: in vivo, human; conditions: tucatinib 300 mg BID, Day 14 vs Day 8
MATE1 = molecular target: T3, MATE1 (Homo sapiens, UniProt Q96FL8); test: Inhibition of MATE1 mediated transport of creatinine in transfected MDCK-II cells (Example 3); type: in vitro ADME; design: expressed in transfected cells; host or cells: MDCK-II; conditions: probe substrate creatinine
T3 sequence (Q96FL8 1-570): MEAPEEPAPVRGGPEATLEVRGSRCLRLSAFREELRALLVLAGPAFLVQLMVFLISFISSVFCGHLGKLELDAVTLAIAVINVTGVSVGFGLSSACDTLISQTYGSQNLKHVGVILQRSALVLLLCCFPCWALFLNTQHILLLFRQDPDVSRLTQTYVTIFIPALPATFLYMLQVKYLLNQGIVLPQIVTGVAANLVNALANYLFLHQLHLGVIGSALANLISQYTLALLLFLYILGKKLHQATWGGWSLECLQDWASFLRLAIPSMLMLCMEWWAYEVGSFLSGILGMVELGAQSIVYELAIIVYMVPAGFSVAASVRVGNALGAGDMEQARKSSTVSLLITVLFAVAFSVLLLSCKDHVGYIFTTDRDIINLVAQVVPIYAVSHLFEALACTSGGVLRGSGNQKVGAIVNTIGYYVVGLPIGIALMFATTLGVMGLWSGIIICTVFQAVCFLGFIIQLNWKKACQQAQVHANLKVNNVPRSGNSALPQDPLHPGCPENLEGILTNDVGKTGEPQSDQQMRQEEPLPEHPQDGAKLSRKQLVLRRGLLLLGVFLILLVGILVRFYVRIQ
Procedure: OAT2, OCT2, OCT3, MATE1, and MATE2-K are the renal transporters identified to transport creatinine.
as §2, §3
Percent inhibition was calculated as follows: Percent inhibition=100−(100*(transporter mediated uptake)with inhibition/(transporter mediated uptake)without inhibition)
The following equation was used to determine IC50 values of uptake assays: […]

For `Cc1cc(Nc2ncnc3ccc(NC4=NC(C)(CO)CO4)cc23)ccc1Oc1ccn2ncnc2c1` (stereo not shown) [ONT-993], the IC50 (OCT2) was 544 ± 278 nM, the “Maximum inhibition of OAT2 mediated transport of creatinine” value (OAT2) was 44.9% and the “Rac (accumulation ratio) after multiple dosing” value [1] was 2.01. It also gave an IC50 (MATE1) of 86.3 ± 12.6 nM.
